Test results taken from PMC9758846, “Dinuclear and mononuclear metal(II) polypyridyl complexes against drug-sensitive and drug-resistant Plasmodium falciparum and their mode of action” (Malaria Journal, 2022).

What was measured:
[1] = PNDA assay of •OH radicals from reaction with H2O2; conditions: for Concentration of •OH radical: 30 µM compound with excess H2O2
Description: A previously reported spectrometric assay using PNDA was used to quantify the amount of reactive oxygen species (ROS), viz. •OH radicals, produced by the reaction of metal(II) complexes with hydrogen peroxide in borate buffer at pH 7.5 [24–26]. The percentage of PNDA bleaching and the concentration of •OH produced were determined.

[2] = Solution stability by molar conductivity and visible absorptivity; format: physicochemical; conditions: 24, 48 and 72 h; room temperature
Description: Series of 10 mM stock solutions were prepared by dissolving the compounds in their respective solvents: phen and 4,4′-bipy in 95% ethanol; Cu(NO3)2·3H2O, Zn(NO3)2·6H2O, (1) and (2) in double distilled water; (3) and (4) in DMSO. All the stock solutions were further diluted with double distilled water to obtain 10 mL of 30 µM, 1 mM and 5 mM for their respective studies, viz. 30 µM for ultraviolet spectral studies, 1 mM for conductivity measurement and 5 mM for visible spectral studies. For the water-DMSO solutions of both complexes (3) and (4), the 30 µM, 1 mM and 5 mM solutions have […], 10% DMSO and 50% DMSO respectively. The absorbance at λmax and conductance were of the aqueous solutions were measured at 0, 24, 48 and 72 h. The molar absorptivity and molar conductivity of the metal(II) complex solutions and their precursors were then calculated.

[3] = test system: B+ blood red blood cells (RBC); test: In vitro haemolytic assay; format: cell-based, human; conditions: up to 25 µM; 72 h
Description: Fresh B+ blood was washed with RPMI1640 medium containing of 30 µg/mL gentamicin (Gibco) and centrifuged at 1000 xg for 10 min three times. The percentage of haemolysis was determined spectroscopically using 5% haematocrit containing test compound at increasing concentration and incubated for 72 h at 37 °C [19, 20]. Untreated blood acted as negative control while blood treated with sterile distilled water acted as positive control (for 100% haemolysis).

[4] = test system: Pf3D7; test: Intracellular ROS level using DCFH-DA; format: cell-based, Plasmodium falciparum
Description: (§1) After incubation, packed cells were washed with phosphate buffer saline (PBS) solution. […] The data was expressed as fold change between amount of ROS produced by treated P. falciparum against untreated P. falciparum. Normalization was done with the percentage of parasite viability obtained at each condition. Hydrogen peroxide was used as positive control.

[5] = test system: Pf5202; test: Intracellular ROS level using DCFH-DA; format: cell-based, Plasmodium falciparum
Description: as §1

Question: For `O.O.O=[N+]([O-])[O-].O=[N+]([O-])[O-].[Zn+2].c1cnc2c(c1)ccc1cccnc12.c1cnc2c(c1)ccc1cccnc12` [Complex 2, [Zn(phen)2](NO3)2·2H2O], which “Concentration of •OH radical” value ([1]; 2 h) is on record?
Answer: 0.01 ± 0.08 µM

Question: What about the “Concentration of •OH radical” value ([1]; 4 h) of the same molecule?
Answer: 0.08 ± 0.03 µM

Question: What about the “Concentration of •OH radical” value ([1]; 24 h) of the same molecule?
Answer: 0.20 ± 0.16 µM

Question: What about the “Concentration of •OH radical” value ([1]; 48 h) of the same molecule?
Answer: 0.21 ± 0.05 µM

Question: And the “Concentration of •OH radical” value ([1]; 72 h)?
Answer: 0.28 ± 0.08 µM

Question: What about the “Generation of ·OH radicals (in words)” value ([1]; equimolar test compound with excess H2O2) of the same molecule?
Answer: did not generate any ·OH radicals

Question: What about the “Stability of aqueous solution (molar conductivity; for (1) also visible molar absorptivity)” value [2] of the same molecule?
Answer: remains practically unchanged

Question: And the “Haemolysis on B+ blood (in words)” value [3]?
Answer: no haemolysis

Question: What about the “fold change in ROS” value ([4]; 24 h, 0.2 µM) of the same molecule?
Answer: 0.07 ± 0.08 fold

Question: What about the “fold change in ROS” value ([4]; 24 h, 1.0 µM) of the same molecule?
Answer: 0.39 ± 0.19 fold

Question: What about the “fold change in ROS” value ([4]; 24 h, 5.0 µM) of the same molecule?
Answer: 0.45 ± 0.10 fold

Question: What about the “fold change in ROS” value ([4]; 24 h, 25.0 µM) of the same molecule?
Answer: 2.61 ± 0.12 fold

Question: And the “fold change in ROS” value ([4]; 48 h, 0.2 µM)?
Answer: 1.9 ± 0.38 fold

Question: And the “fold change in ROS” value ([4]; 48 h, 1.0 µM)?
Answer: 2.13 ± 0.21 fold

Question: And the “fold change in ROS” value ([4]; 48 h, 5.0 µM)?
Answer: 2.95 ± 0.18 fold

Question: What about the “fold change in ROS” value ([4]; 48 h, 25.0 µM) of the same molecule?
Answer: 2.48 ± 0.26 fold

Question: What about the “fold change in ROS” value ([4]; 72 h, 25.0 µM) of the same molecule?
Answer: 0.70 ± 0.05 fold

Question: And the “fold change in ROS” value ([5]; 24 h, 0.2 µM)?
Answer: 1.07 ± 0.05 fold

Question: What about the “fold change in ROS” value ([5]; 24 h, 1.0 µM) of the same molecule?
Answer: 1.10 ± 0.09 fold

Question: What about the “fold change in ROS” value ([5]; 24 h, 5.0 µM) of the same molecule?
Answer: 1.00 ± 0.02 fold

Question: And the “fold change in ROS” value ([5]; 24 h, 25.0 µM)?
Answer: 1.04 ± 0.06 fold

Question: What about the “fold change in ROS” value ([5]; 72 h, 0.2 µM) of the same molecule?
Answer: 0.00 ± 0.03 fold

Question: And the “fold change in ROS” value ([5]; 72 h, 1.0 µM)?
Answer: 0.34 ± 0.04 fold

Question: And the “fold change in ROS” value ([5]; 72 h, 5.0 µM)?
Answer: 0.16 ± 0.04 fold
